# Test results: paper PMC5218480 (PLoS ONE, 2017)
# System: MV-4-11 cells
# Assay: Gene expression microarray analysis (Affymetrix PrimeView) and GSEA
# Assay type: cell-based, human
# Set-up: RFU PODN (11730768_x_at) / Fold change /veh PODN (11730768_x_at) / RFU LINC00158 (11744669_a_at) / Fold change /veh LINC00158 (11744669_a_at) / RFU DUSP10 (11751237_a_at) / Fold change /veh DUSP10 (11751237_a_at) / RFU ID3 (11757404_x_at) / Fold change /veh ID3 (11757404_x_at) / RFU PLEKHG5 (11737974_s_at) / Fold change /veh PLEKHG5 (11737974_s_at) / RFU LRRC4B (11730491_at) / Fold change /veh LRRC4B (11730491_at) / RFU GIMAP4 (11747438_a_at) / Fold change /veh GIMAP4 (11747438_a_at) / RFU KRT8 (11758183_x_at) / Fold change /veh KRT8 (11758183_x_at) / RFU CNN1 (11734310_a_at) / Fold change /veh CNN1 (11734310_a_at) / RFU VPS37D (11726825_at) / Fold change /veh VPS37D (11726825_at) / RFU C10orf10 (11716522_x_at) / Fold change /veh C10orf10 (11716522_x_at) / RFU KIR2DL2 /// KIR2DL4 /// KIR2DL5A /// KIR2DL5B /// KIR2DS1 /// KIR2DS2 /// KIR2DS3 /// KIR2DS4 /// KIR3DL3 /// KIR3DL3 /// KIR3DS1 (11738374_at) / Fold change /veh KIR2DL2 /// KIR2DL4 /// KIR2DL5A /// KIR2DL5B /// KIR2DS1 /// KIR2DS2 /// KIR2DS3 /// KIR2DS4 /// KIR3DL3 /// KIR3DL3 /// KIR3DS1 (11738374_at) / RFU C1QL1 (11718748_at) / Fold change /veh C1QL1 (11718748_at) / RFU TMPRSS4 (11747572_a_at) / Fold change /veh TMPRSS4 (11747572_a_at) / RFU HAMP (11756126_x_at) / Fold change /veh HAMP (11756126_x_at) / RFU RNFT2 (11725882_a_at) / Fold change /veh RNFT2 (11725882_a_at) / RFU NR4A2 (11747474_a_at) / Fold change /veh NR4A2 (11747474_a_at) / RFU ABCC12 (11746883_a_at) / Fold change /veh ABCC12 (11746883_a_at) / RFU TMEM136 (11760407_x_at) / Fold change /veh TMEM136 (11760407_x_at) / RFU CLDN22 /// WWC2 (11732394_at) / Fold change /veh CLDN22 /// WWC2 (11732394_at) / RFU HLA-DPB1 (11760878_x_at) / Fold change /veh HLA-DPB1 (11760878_x_at) / RFU SPINT1 (11716480_a_at) / Fold change /veh SPINT1 (11716480_a_at) / RFU GAP43 (11754022_s_at) / Fold change /veh GAP43 (11754022_s_at) / RFU A4GNT (11735810_at) / Fold change /veh A4GNT (11735810_at) / RFU PRB3 (11715151_x_at) / Fold change /veh PRB3 (11715151_x_at) / RFU TUBB4B (11761932_at) / Fold change /veh TUBB4B (11761932_at) / RFU CAPN14 (11732068_a_at) / Fold change /veh CAPN14 (11732068_a_at) / RFU TMCC2 (11721928_a_at) / Fold change /veh TMCC2 (11721928_a_at) / RFU IRGQ (11745062_a_at) / Fold change /veh IRGQ (11745062_a_at) / RFU FAM174B (11720279_a_at) / Fold change /veh FAM174B (11720279_a_at) / RFU TMPRSS4 (11748680_a_at) / Fold change /veh TMPRSS4 (11748680_a_at) / RFU FAM212B (11763350_a_at) / Fold change /veh FAM212B (11763350_a_at) / RFU PLEKHG5 (11743358_a_at) / Fold change /veh PLEKHG5 (11743358_a_at) / RFU ZSCAN30 (11745921_a_at) / Fold change /veh ZSCAN30 (11745921_a_at) / RFU CMKLR1 (11741424_a_at) / Fold change /veh CMKLR1 (11741424_a_at) / RFU LOC101060620 /// MAPK8IP1 (11723275_at) / Fold change /veh LOC101060620 /// MAPK8IP1 (11723275_at) / RFU SPTSSB (11747773_x_at) / Fold change /veh SPTSSB (11747773_x_at) / RFU PRSS12 (11739890_at) / Fold change /veh PRSS12 (11739890_at) / RFU BIN1 (11741810_x_at) / Fold change /veh BIN1 (11741810_x_at) / RFU WNT11 (11732464_a_at) / Fold change /veh WNT11 (11732464_a_at) / RFU C10orf10 (11716521_a_at) / Fold change /veh C10orf10 (11716521_a_at) / RFU C5orf56 (11738089_at) / Fold change /veh C5orf56 (11738089_at) / RFU CYB561 (11721691_x_at) / Fold change /veh CYB561 (11721691_x_at) / RFU ANKRD19P (11752326_a_at) / Fold change /veh ANKRD19P (11752326_a_at) / RFU OR2T12 /// OR2T33 /// OR2T8 (11738714_s_at) / Fold change /veh OR2T12 /// OR2T33 /// OR2T8 (11738714_s_at) / RFU VCAN (11748164_a_at) / Fold change /veh VCAN (11748164_a_at) / RFU JSRP1 (11732532_at) / Fold change /veh JSRP1 (11732532_at) / RFU KRTAP10-11 (11738290_x_at) / Fold change /veh KRTAP10-11 (11738290_x_at) / RFU MYO3A (11730013_a_at) / Fold change /veh MYO3A (11730013_a_at) / RFU EBF3 (11725865_a_at) / Fold change /veh EBF3 (11725865_a_at) / RFU CAMK2N1 (11719241_x_at) / Fold change /veh CAMK2N1 (11719241_x_at) / RFU C5orf56 (11738088_a_at) / Fold change /veh C5orf56 (11738088_a_at) / RFU OLFML3 (11715873_a_at) / Fold change /veh OLFML3 (11715873_a_at) / RFU LOC100653217 /// NTM (11731650_a_at) / Fold change /veh LOC100653217 /// NTM (11731650_a_at) / RFU MAPK11 (11762145_a_at) / Fold change /veh MAPK11 (11762145_a_at) / RFU FIZ1 (11724087_x_at) / Fold change /veh FIZ1 (11724087_x_at) / RFU OASL (11726364_x_at) / Fold change /veh OASL (11726364_x_at) / RFU SOX15 (11748057_x_at) / Fold change /veh SOX15 (11748057_x_at) / RFU CD79A (11719716_a_at) / Fold change /veh CD79A (11719716_a_at) / RFU HIST1H1D (11736915_at) / Fold change /veh HIST1H1D (11736915_at) / RFU CASKIN2 (11723855_a_at) / Fold change /veh CASKIN2 (11723855_a_at) / RFU LOC730098 (11760151_x_at) / Fold change /veh LOC730098 (11760151_x_at) / RFU OR4N2 (11742367_at) / Fold change /veh OR4N2 (11742367_at) / RFU PRRT2 (11749266_a_at) / Fold change /veh PRRT2 (11749266_a_at) / RFU SNX32 (11753110_a_at) / Fold change /veh SNX32 (11753110_a_at) / RFU CDHR5 (11726645_a_at) / Fold change /veh CDHR5 (11726645_a_at) / RFU RCAN1 (11760418_a_at) / Fold change /veh RCAN1 (11760418_a_at) / RFU FAM167A (11723789_a_at) / Fold change /veh FAM167A (11723789_a_at) / RFU FAM26E (11764081_at) / Fold change /veh FAM26E (11764081_at) / RFU ISYNA1 (11749810_s_at) / Fold change /veh ISYNA1 (11749810_s_at) / RFU ACY1 (11761880_at) / Fold change /veh ACY1 (11761880_at) / RFU 11764098_at / Fold change /veh 11764098_at / RFU SAMD14 (11745864_x_at) / Fold change /veh SAMD14 (11745864_x_at) / RFU NPB (11741838_a_at) / Fold change /veh NPB (11741838_a_at) / RFU TMPRSS6 (11731388_a_at) / Fold change /veh TMPRSS6 (11731388_a_at) / RFU KRTAP10-2 (11738614_at) / Fold change /veh KRTAP10-2 (11738614_at) / RFU ARHGAP8 /// PRR5-ARHGAP8 (11727945_x_at) / Fold change /veh ARHGAP8 /// PRR5-ARHGAP8 (11727945_x_at) / RFU KRTAP5-7 /// NADSYN1 (11734609_at) / Fold change /veh KRTAP5-7 /// NADSYN1 (11734609_at) / RFU RASL12 (11751679_a_at) / Fold change /veh RASL12 (11751679_a_at) / RFU CDKN2B (11736163_a_at) / Fold change /veh CDKN2B (11736163_a_at) / RFU PRF1 (11729649_at) / Fold change /veh PRF1 (11729649_at) / RFU, ZNF638 /// ZNF638-IT1 / Fold change vs veh, ZNF638 /// ZNF638-IT1 / RFU, PANK3 / Fold change vs veh, PANK3 / RFU, SH3YL1 / Fold change vs veh, SH3YL1 / RFU, ZEB2 / Fold change vs veh, ZEB2 / RFU, NRIP1 / Fold change vs veh, NRIP1 / RFU, PTTG1IP / Fold change vs veh, PTTG1IP / RFU, CAPN2 / Fold change vs veh, CAPN2 / RFU, MED14 / Fold change vs veh, MED14 / RFU, SNORA58 / Fold change vs veh, SNORA58 / RFU, C1orf63 / Fold change vs veh, C1orf63 / RFU, LRRFIP1 / Fold change vs veh, LRRFIP1 / RFU, NDUFAF7 / Fold change vs veh, NDUFAF7 / RFU, SLC12A2 / Fold change vs veh, SLC12A2 / RFU, IBTK / Fold change vs veh, IBTK / RFU, ESF1 / Fold change vs veh, ESF1 / Fold change vs veh, TMEM50B / RFU, TAOK1 / Fold change vs veh, TAOK1 / RFU, ACBD3 / Fold change vs veh, ACBD3 / RFU, TMA16 / Fold change vs veh, TMA16 / RFU, RWDD3 / Fold change vs veh, RWDD3 / RFU, BCAT1 / Fold change vs veh, BCAT1 / RFU, EDEM3 / Fold change vs veh, EDEM3 / RFU, TMEM33 / Fold change vs veh, TMEM33 / RFU, WDR75 / Fold change vs veh, WDR75 / RFU, AHCTF1 / Fold change vs veh, AHCTF1 / RFU, TFRC / Fold change vs veh, TFRC / RFU, ZDHHC17 / Fold change vs veh, ZDHHC17 / RFU, NOM1 / Fold change vs veh, NOM1 / RFU, ARL8B / Fold change vs veh, ARL8B / RFU, ZBTB11 / Fold change vs veh, ZBTB11 / RFU, TAMM41 / Fold change vs veh, TAMM41 / RFU, KIAA1704 /// LOC100996395 / Fold change vs veh, KIAA1704 /// LOC100996395 / RFU, ING1 / Fold change vs veh, ING1 / RFU, TRMT61B / Fold change vs veh, TRMT61B / RFU, FUBP3 / Fold change vs veh, FUBP3 / RFU, TP53 / Fold change vs veh, TP53 / RFU, TNKS2 / Fold change vs veh, TNKS2 / RFU, ZFP14 / Fold change vs veh, ZFP14 / RFU, ACTR2 / Fold change vs veh, ACTR2 / RFU, PPP3R1 / Fold change vs veh, PPP3R1 / RFU, PIK3R1 / Fold change vs veh, PIK3R1 / RFU, HNRNPA1 / Fold change vs veh, HNRNPA1 / RFU, RNF170 / Fold change vs veh, RNF170 / RFU, ZNF28 / Fold change vs veh, ZNF28 / RFU, RNGTT / Fold change vs veh, RNGTT / RFU, OGT / Fold change vs veh, OGT / RFU, BRD1 / Fold change vs veh, BRD1 / RFU, MARS / Fold change vs veh, MARS / RFU, ZNF655 / Fold change vs veh, ZNF655 / RFU, FAHD1 / Fold change vs veh, FAHD1 / RFU, BDP1 / Fold change vs veh, BDP1 / RFU, LRRCC1 / Fold change vs veh, LRRCC1 / RFU, ARID1A / Fold change vs veh, ARID1A / RFU, ZNF146 / Fold change vs veh, ZNF146 / RFU, ZNF330 / Fold change vs veh, ZNF330 / RFU, GPN3 / Fold change vs veh, GPN3 / RFU, C9orf123 / Fold change vs veh, C9orf123 / RFU, N4BP2L2 / Fold change vs veh, N4BP2L2 / RFU, ARFIP1 / Fold change vs veh, ARFIP1 / RFU, FAM179B / Fold change vs veh, FAM179B / RFU, BCL10 / Fold change vs veh, BCL10 / RFU, UHRF1BP1L / Fold change vs veh, UHRF1BP1L / RFU, BET1 / Fold change vs veh, BET1 / RFU, CNOT2 / Fold change vs veh, CNOT2 / RFU, ZNF268 / Fold change vs veh, ZNF268 / Fold change vs veh, ZNF507 / RFU, DGCR2 / Fold change vs veh, DGCR2 / RFU, WDSUB1 / Fold change vs veh, WDSUB1 / Fold change vs veh, HSP90B1 /// MIR3652 / RFU, ADSS / Fold change vs veh, ADSS / RFU, GK / Fold change vs veh, GK / RFU, ZNF148 / Fold change vs veh, ZNF148 / RFU, TAF9 / Fold change vs veh, TAF9 / RFU, SLC1A5 / Fold change vs veh, SLC1A5 / RFU, SLMO2 / Fold change vs veh, SLMO2 / RFU, ABCC4 / Fold change vs veh, ABCC4 / RFU, LOC101060439 /// RAP1B / Fold change vs veh, LOC101060439 /// RAP1B / RFU, RFX7 / Fold change vs veh, RFX7 / RFU, GTPBP10 / Fold change vs veh, GTPBP10 / RFU, CNEP1R1 / Fold change vs veh, CNEP1R1 / RFU, BIVM-ERCC5 /// ERCC5 / Fold change vs veh, BIVM-ERCC5 /// ERCC5 / RFU, ILF3 / Fold change vs veh, ILF3 / RFU 11762660_at / Fold change /veh 11762660_at / RFU VCAN (11757783_s_at) / Fold change /veh VCAN (11757783_s_at) / RFU DDX43 (11728927_at) / Fold change /veh DDX43 (11728927_at) / RFU KRT8 (11758188_x_at) / Fold change /veh KRT8 (11758188_x_at) / RFU NKD1 (11759106_at) / Fold change /veh NKD1 (11759106_at) / RFU SRD5A1 (11742802_a_at) / Fold change /veh SRD5A1 (11742802_a_at) / RFU TPSAB1 /// TPSB2 (11721975_s_at) / Fold change /veh TPSAB1 /// TPSB2 (11721975_s_at) / RFU GSTM3 (11746129_a_at) / Fold change /veh GSTM3 (11746129_a_at) / RFU IL23R (11737362_x_at) / Fold change /veh IL23R (11737362_x_at) / RFU TMEM51 (11727254_a_at) / Fold change /veh TMEM51 (11727254_a_at) / RFU PIWIL2 (11732686_x_at) / Fold change /veh PIWIL2 (11732686_x_at) / RFU ORM1 (11744905_x_at) / Fold change /veh ORM1 (11744905_x_at) / RFU CCDC152 (11743942_at) / Fold change /veh CCDC152 (11743942_at) / RFU ECM1 (11717891_a_at) / Fold change /veh ECM1 (11717891_a_at) / RFU IL23R (11748794_a_at) / Fold change /veh IL23R (11748794_a_at) / RFU TNFAIP8L3 (11732012_x_at) / Fold change /veh TNFAIP8L3 (11732012_x_at) / RFU MBOAT4 (11741988_at) / Fold change /veh MBOAT4 (11741988_at) / RFU 11764193_at / Fold change /veh 11764193_at / RFU TMEM53 (11763286_at) / Fold change /veh TMEM53 (11763286_at) / RFU MAGEB2 (11727129_at) / Fold change /veh MAGEB2 (11727129_at) / RFU TMEM200A (11744735_a_at) / Fold change /veh TMEM200A (11744735_a_at) / RFU CCDC152 (11751479_a_at) / Fold change /veh CCDC152 (11751479_a_at) / RFU FAM211A (11726209_a_at) / Fold change /veh FAM211A (11726209_a_at) / RFU RGS16 (11746705_a_at) / Fold change /veh RGS16 (11746705_a_at) / RFU VCAN (11755009_s_at) / Fold change /veh VCAN (11755009_s_at) / RFU RHOB (11743442_s_at) / Fold change /veh RHOB (11743442_s_at) / RFU RGS16 (11720943_a_at) / Fold change /veh RGS16 (11720943_a_at) / RFU RGS16 (11720944_at) / Fold change /veh RGS16 (11720944_at) / RFU, VPS4B / Fold change vs veh, VPS4B / RFU, CREB1 / Fold change vs veh, CREB1 / RFU, DNAJC13 / Fold change vs veh, DNAJC13 / RFU, GNAQ / Fold change vs veh, GNAQ / RFU, CDK5R1 / Fold change vs veh, CDK5R1 / RFU, ZRANB3 / Fold change vs veh, ZRANB3 / RFU, CUL4A / Fold change vs veh, CUL4A / RFU, CCNY / Fold change vs veh, CCNY / RFU, UFL1 / Fold change vs veh, UFL1 / RFU, COG3 / Fold change vs veh, COG3 / RFU, DIAPH2 / Fold change vs veh, DIAPH2 / RFU, SKA2 / Fold change vs veh, SKA2 / RFU, AFF3 / Fold change vs veh, AFF3 / RFU, LMF1 / Fold change vs veh, LMF1 / RFU, IPO11 / Fold change vs veh, IPO11 / RFU, DFFB / Fold change vs veh, DFFB / RFU, FOXP1 / Fold change vs veh, FOXP1 / RFU, CARD8 / Fold change vs veh, CARD8 / RFU, STRN3 / Fold change vs veh, STRN3 / RFU, ADK / Fold change vs veh, ADK / RFU, RASSF2 / Fold change vs veh, RASSF2 / RFU, WIPF1 / Fold change vs veh, WIPF1 / RFU, LARP1B / Fold change vs veh, LARP1B / RFU, RASA1 / Fold change vs veh, RASA1 / RFU, RB1 / Fold change vs veh, RB1 / RFU, PPFIA1 / Fold change vs veh, PPFIA1 / RFU, MAT2A / Fold change vs veh, MAT2A / RFU, CCT5 / Fold change vs veh, CCT5 / RFU, WDR92 / Fold change vs veh, WDR92 / RFU, CUX1 / Fold change vs veh, CUX1 / RFU, TTC7A / Fold change vs veh, TTC7A / RFU, TMEM135 / Fold change vs veh, TMEM135 / RFU, DEPTOR / Fold change vs veh, DEPTOR / RFU, CPM / Fold change vs veh, CPM / RFU, DNAJB6 / Fold change vs veh, DNAJB6 / RFU, CACNA2D3 / Fold change vs veh, CACNA2D3 / RFU, DTX4 / Fold change vs veh, DTX4 / RFU, TFCP2 / Fold change vs veh, TFCP2 / RFU, GMCL1 /// GMCL1P1 / Fold change vs veh, GMCL1 /// GMCL1P1 / RFU, AEBP2 / Fold change vs veh, AEBP2 / RFU, SNHG1 /// SNORD22 /// SNORD25 /// SNORD26 /// SNORD27 /// SNORD28 /// SNORD29 /// SNORD31 / Fold change vs veh, SNHG1 /// SNORD22 /// SNORD25 /// SNORD26 /// SNORD27 /// SNORD28 /// SNORD29 /// SNORD31 / Fold change (Aza/veh), C12orf56 (ProbeSet 11735607_a_at) / Fold change (ACY-1035/veh), C12orf56 (ProbeSet 11735607_a_at) / Fold change (Aza/veh), FGFR1OP (ProbeSet 11751329_s_at) / Fold change (ACY-1035/veh), FGFR1OP (ProbeSet 11751329_s_at) / Fold change (Aza/veh), VPS36 (ProbeSet 11739960_a_at) / Fold change (ACY-1035/veh), VPS36 (ProbeSet 11739960_a_at) / RFU SYPL1 (11715823_x_at) / Fold change /veh SYPL1 (11715823_x_at) / RFU IGFBP7 (11715501_s_at) / Fold change /veh IGFBP7 (11715501_s_at) / RFU REEP3 (11722064_at) / Fold change /veh REEP3 (11722064_at) / RFU IGLL1 (11728026_x_at) / Fold change /veh IGLL1 (11728026_x_at): dose or concentration left out as unconfirmed
# Conditions: MV-4-11 cells, 48 hours
smiles,measurement,value
Nc1ccc(-c2cccs2)cc1NC(=O)c1ccc2c(c1)cc(C1CC1)n2CCN1CCOCC1 [ACY-1035],Fold change /veh REEP3 (11722064_at),0.53
